Three compounds from patent US6362237B1, “Compounds with progesterone-antagonistic and antiestrogenic action to be used together for female contraception” (Schering Aktiengesellschaft, priority 1994, dated 2002) can be followed below.

The subject of test [1] is normal guinea pigs with a normal cycle. Put plainly: Test 3: receptivity inhibition in guinea pigs treated over 2 cycles, mating in the second cycle. The test is classed as in vivo, guinea pig. The conditions noted are these: for effectiveness of the single dose given separately: 0.5 mg daily s.c.; for effectiveness of the single dose given separately / effect of lower doses by themselves: alone; for effect of lower doses by themselves: <1.0 mg daily s.c. Here is the method:
The tests were carried out on normal guinea pigs with a normal cycle over a treatment period of 2 cycles. Mating took place in the second cycle.
Doses of Onapristone: 0.1, 0.25, 0.5, 1.0 and 3.0 mg daily s.c.

The subject of a further test is guinea pigs. As to the kind of experiment: Inhibition of implantation in guinea pigs by estrogen antagonists. The test is classed as in vivo, guinea pig.

Consider `CN(C)c1ccc([C@H]2C[C@]3(C)[C@@H](CC[C@]3(O)CCCO)[C@@H]3CCC4=CC(=O)CCC4=C32)cc1` [onapristone, 11β-[4-(dimethylamino)phenyl]-17α-hydroxy-17β-(3-hydroxypropyl)-13α-estra-4,9-dien-3one], for which, in test [1], the “effectiveness of the single dose given separately” value is recorded as “only marginally effective” and the “effect of lower doses by themselves” value is “no effect or a marginal effect”. For the same compound, in test [1] (onapristone alone, high doses, daily s.c.), the pregnancies after treatment entry is recorded as “occasional pregnancies occurred”.
For `C[C@]12CC[C@@H]3c4ccc(O)cc4C[C@@H](CCCCCCCCC[S+]([O-])CCCC(F)(F)C(F)(F)F)[C@H]3[C@@H]1CC[C@@H]2O` (stereo partly drawn) [ICI 182780, 7α-[9-[(4,4,5,5,5-pentafluorpentyl)sulfinyl]nonyl]estra-1,3,5(10)-trien-3,17β-diol], the “implantation in guinea pigs” value in the test with guinea pigs was “inhibit implantation”.
In the case of `CC/C(=C(\c1ccccc1)c1ccc(OCCN(C)C)cc1)c1ccccc1` [tamoxifen, (Z)-N,N-dimethyl-2-[4-(1,2-diphenyl-1-butenyl)phenoxy]ethanamine], in test [1], the “effectiveness of the single dose given separately” value is “only marginally effective” and the “effect of lower doses by themselves” value is “no effect or a marginal effect”. This compound had a normal pregnancies in test [1] (tamoxifen alone, 10.0 mg daily s.c., 2 cycles) of 30%. For the same compound, the inhibition of receptivity result in test [1] (tamoxifen alone, dosage range 0.1-10.0 mg/animal daily s.c.) was “no complete inhibition of receptivity could be achieved”. Besides, the “implantation in guinea pigs” value with guinea pigs was “inhibit implantation”.
